One data set deals with SHR. Description: Effect by oral administration on SHR, tail cuff method (Experiment C-6). It is filed as in vivo, Spontaneously hypertensive male rats. How it is done:
By using Spontaneously hypertensive male rats (aged 16 to 17 weeks), the compound of Example C-8 and a comparative compound [S-(R*,R*)]-2,3,4,5-tetrahydro-3-[(2-mercapto-1-oxohexyl)amino]-2-oxo-1H-benzazepine-1-acetic acid having the following structure each dissolved in 0.5% methylcellulose were orally administered thereto. Hypotensive effects were measured by the tail cuff method and data obtained before the oral administration and 2, 4 and 8 hours after the administration were compared. […] Accordingly, the compound of Example C-8 has an activity about 10 times as high as that of the comparative compound. [drawing 35]

Data set [1] deals with T1, vasopressin (V1) receptor (Rattus norvegicus, UniProt P30560).
T1 construct: Membrane specimens of rat liver (V1); from tissue; host or cells: rat liver membranes
Briefly: V1 receptor binding assay, rat liver membrane (Experiment F-2). Conditions: [3H]-Arg-vasopressin, pH 7.4. How it is done: Membrane specimens of rat liver (V1) and rat kidney (V2) were used. 100,000 counts (3.69 nM) of [^3 H]-Arg-vasopressin, 25 μg (1 mg protein/ml) of each membrane specimen and a test medicament (10^-7 to 10^-5 M) were incubated in 250 μl in total of an assay buffer (pH=7.4) containing 10 mM of MgCl2, 2 mM of EGTA and 20 mM of HEPES at 4° C. over day and night. Then, the incubation was washed with 5-ml portions of the buffer 5 times to thereby separate the membrane specimen binding to vasopressin followed by filtration with the use of a glass filter (GF/F). This glass filter was dried for about 3 hours and mixed with a cocktail for liquid scintillation (10 ml, ACSII). After allowing to stand overnight, the amount of the [^3 H]-Arg-vasopressin binding to the membrane was determined with a liquid scintillation counter and the inhibition ratio was calculated in accordance with the following formula: […]
(§1) B1; the amount of [^3 H]-Arg-vasopressin binding to the membrane in the presence of excessive vasopressin (10 μM)
(§2) C0; the amount of [^3 H]-Arg-vasopressin binding to the membrane in the absence of the test medicament and
(§3) C1; the amount of [^3 H]-Arg-vasopressin binding to the membrane in the presence of both the test medicament in a known amount and [^3 H]-Arg-vasopressin. […]

Data set [2] concerns the target T2, vasopressin (V2) receptor (Rattus norvegicus, UniProt Q00788).
T2 construct: rat kidney (V2); from tissue; host or cells: rat kidney membranes
Description: V2 receptor binding assay, rat kidney membrane (Experiment E-3). Conditions: [3H]-Arg-vasopressin, pH 7.4. How it is done:
Membrane specimens of rat liver (V1) and rat kidney (V2) were used. 100,000 counts (3.69 nM) of [^3 H]-Arg-vasopressin, 25 μg (1 mg protein/ml) of each membrane specimen and a test medicament (10^-7 to 10^-5 M) were incubated in a total volume of 250 μl of an assay buffer (pH=7.4) containing 10 mM of MgCl2, 2 mM of EGTA and 20 mM of HEPES at 4° C. over day and night. Then, the incubation was washed with 5-ml portions of the buffer 5 times to thereby separate the membrane specimen binding to vasopressin followed by filtration with the use of a glass filter (GF/F). This glass filter was dried for about 3 hours and mixed with a cocktail for liquid scintillation (10 ml, ACSII). After allowing to stand overnight, the amount of the [^3 H]-Arg-vasopressin binding to the membrane was determined with a liquid scintillation counter and the inhibition ratio was calculated in accordance with the following formula: […]
as §1, §2, §3

The nature of data set [3]: Blood level and bioavailability in rats (Experiment E-2). The settings on record: rat, blood, po. An excerpt:
Then changes in the blood level of each medicament were monitored with the lapse of time by using liquid chromatography.

The structures appear in SMILES notation.

T2 sequence (Q00788 whole entry): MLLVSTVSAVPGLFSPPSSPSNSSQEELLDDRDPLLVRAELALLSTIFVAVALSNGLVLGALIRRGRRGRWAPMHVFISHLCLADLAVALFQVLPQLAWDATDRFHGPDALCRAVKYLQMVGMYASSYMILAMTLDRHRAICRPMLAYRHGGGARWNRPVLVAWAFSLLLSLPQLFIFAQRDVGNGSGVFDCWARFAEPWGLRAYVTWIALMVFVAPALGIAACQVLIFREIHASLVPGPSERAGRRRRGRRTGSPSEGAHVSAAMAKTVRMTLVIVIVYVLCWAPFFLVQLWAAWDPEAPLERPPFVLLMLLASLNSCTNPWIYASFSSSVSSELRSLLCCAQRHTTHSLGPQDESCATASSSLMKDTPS
T1 sequence (P30560 whole entry): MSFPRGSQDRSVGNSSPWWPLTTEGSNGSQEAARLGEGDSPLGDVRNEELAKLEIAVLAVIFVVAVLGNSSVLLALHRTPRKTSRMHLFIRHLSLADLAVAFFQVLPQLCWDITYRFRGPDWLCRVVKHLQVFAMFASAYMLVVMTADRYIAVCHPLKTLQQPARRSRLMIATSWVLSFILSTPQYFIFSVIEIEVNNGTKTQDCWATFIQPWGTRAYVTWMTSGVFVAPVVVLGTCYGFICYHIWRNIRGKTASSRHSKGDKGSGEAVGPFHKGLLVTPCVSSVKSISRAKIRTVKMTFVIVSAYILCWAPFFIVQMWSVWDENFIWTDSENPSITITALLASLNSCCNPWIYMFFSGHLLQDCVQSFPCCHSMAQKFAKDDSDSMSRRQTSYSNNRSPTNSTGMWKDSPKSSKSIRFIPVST

Take `CC[C@H](C)[C@H](S)C(=O)N[C@H]1CCC[C@H]2SC[C@@H](C(=O)O)N2C1=O` [Example C-8, [3R-[3α,6α,(S*),9aβ]]-6-[[(2S,3S)-3-methyl-1-oxo-2-thiopentyl]amino]-octahydro-5-oxothiazol[3,2-a]-azepine-3-carboxylic acid]: in the data set with SHR (1.0 mg/kg oral, before and 2, 4 and 8 hours after), the “hypotensive effect (tail cuff method)” value is on record as “comparable to the one achieved by 10 mg/kg of the above comparative compound”. Further, in the data set with SHR (oral, SHR), the “activity relative to the comparative compound” value was “about 10 times”.

Regarding `O=C(N[C@H]1CCC[C@H]2SC[C@@H](C(=O)O)N2C1=O)[C@@H](S)Cc1ccccc1` [Example F-17, [3R-[3α,6α(S*),9aβ]]-6-[[(S)-1-Oxo-2-thio-3-phenylpropyl]amino]-octahydro-5-oxothiazol[3,2-a]-azepine-3-carboxylic acid], the 50% inhibitory concentration (IC50) in data set [1] is not below 10 µM.

In turn, `CC(C)[C@H](S)C(=O)N[C@H]1Cc2ccc(-c3ccccc3)cc2[C@H]2CCC[C@@H](C(=O)O)N2C1=O` [Example E-10, [4S-[4α,7α(R*),12bβ]]-7-[(S)-2-Mercapto-3-methylbutyrylamino]-6-oxo-11-phenyl-1,2,3,4,6,7,8,12b-octahydropyrido[2,1-a][2]benzazepine-4-carboxylic acid] showed an IC50 in data set [2] of 4.49 µM. As to `O=C(N[C@H]1Cc2ccccc2[C@H]2CCC[C@@H](C(=O)O)N2C1=O)[C@@H](S)Cc1ccccc1` [Comp. cpd. E-1, [4S-[4α,7α(R*),12bβ]]-7-[(1-oxo-2-(S)-thio-3-phenyl-propyl)amino]-1,2,3,4,6,7,8,12b-octahydro-6-oxopyrido-[2,1-a][2]benzazepine-4-carboxylic acid, reference compound], the bioavailability in data set [3] (10 mg/kg) was 4.3%; in data set [3] (30 mg/kg) it was 7.8%.

A word on the IC50: it is the concentration that inhibits the measured activity by half. What is called bioavailability is dose-corrected exposure relative to a reference, in per cent. High values mean much systemic uptake, low ones little systemic uptake.
